Assay [1] concerns SK-MEL-28. The assay can be described thus: Cell counting after 7 day peptide treatment. The assay is classed as cell-based, human. Conditions: conc 10 µM, start count 10. The essentials:
(§1)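 Melanoma cells in DMEM/10% FCS, plated 16 h before treatment, were exposed to 10 μM cell-penetrating peptide for 7 days in triplicate, with medium and peptide renewed daily. Cells were then trypsinized and counted.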

Assay [2] has as its system WM 266-4. The assay can be described thus: Cell counting after 7 day peptide treatment. In kind it is cell-based, human. To be noted: conc 10 µM, start count 10. A digest of the protocol:
as §1

In the next assay the test system is B16. The assay can be described thus: Cell counting after 7 day peptide treatment. In kind it is cell-based, mouse. To be noted: CPP mimicking peptides, conc 10 µM, start count 10. As to the method: The ability to block interaction of MITF, SOX10 and STAT3 with active transcriptional complex and inhibit proliferation and stimulate apoptosis of melanoma cells were tested on human melanoma cell lines SK-MEL-28 and WM 266-4, and mouse melanoma cell line B16. Methods. Human melanoma cell lines SK-MEL-28 and WM 2664 and mouse melanoma cell line B16 were obtained from the American Tissue Culture Collection (ATCC). Cells were cultured according to recommendations of ATCC (DMEM, 10% FCS, penicillin+streptomycin) and used in experiments after two passages in the laboratory. Cells were grown in 24 well plates, each treatment in triplicates. Cells were plated 16 hours prior treatments started. Peptides were added to the media, and media was changed every day during 7 day experiment. […] Cells were precipitated and resuspended in 100 μl of PBS, and 5 μl were removed for counting

Assay [3] deals with SK-MEL-28. Nature of the assay: WST-1 test (mitochondrial activity). In kind it is cell-based, human. Conditions: conc 10 µM, untreated = 1. On the technique in general: Tetrazolium assays rely on reduction of a dye to a coloured formazan, in cell work by metabolically active cells.
Assay [4] has as its system WM 266-4. The assay can be described thus: WST-1 test (mitochondrial activity). In kind it is cell-based, human. Conditions: conc 10 µM, untreated = 1.
In assay [5] the test system is WM 266-4. Nature of the assay: Apoptosis, Annexin V-Cy3 Apoptosis Kit. The assay is classed as cell-based, human. To be noted: conc 10 µM. On the procedure: Methods. Human melanoma cell lines SK-MEL-28 and WM 2664 and mouse melanoma cell line B16 were obtained from the American Tissue Culture Collection (ATCC). Cells were cultured according to recommendations of ATCC (DMEM, 10% FCS, penicillin+streptomycin) and used in experiments after two passages in the laboratory. Cells were grown in 24 well plates, each treatment in triplicates. Cells were plated 16 hours prior treatments started. Peptides were added to the media, and media was changed every day during 7 day experiment. […] Methods. Human melanoma cell lines SK-MEL-28 and WM 266-4 were obtained from the American Tissue Culture Collection (ATCC) and were cultured according to recommendations of ATCC (DMEM, 10% FCS, penicillin+streptomycin). Human keratinocytes were obtained from Clonetics and cultured according to manufacturers protocol. Cells were used in experiments after two passages in the laboratory. Cells were grown in 24 well plates, each treatment in triplicates. Cells were plated 16 hours prior treatments started. Peptides were added to the media, and media was changed every day during 7 day experiment. […] Apoptosis was analyzed using Biovision Annexin V-Cy3 Apoptosis Kit according to manufacturers protocols.

The values that follow come from patent publication US20060014712A1, “Controlled delivery of therapeutic compounds” (CeMines, Inc., priority 2004, published 2006).

Take “RPKKRKVRRRFNINDRIKELGTLIPKSNDPDMRWN [MITF-int1]”: the “Cell Count 7 d” value in the assay on SK-MEL-28 [1] (CPP mimicking peptides) is listed as 39; with WM 266-4 [2] (CPP mimicking peptides), 30; in the assay with B16 it was 63. Besides, the “WST-1 7 d” value in the assay with SK-MEL-28 [3] (CPP mimicking peptides) turned out to be 0.7; in the assay on WM 266-4 [4] (CPP mimicking peptides), 0.8. Besides, the “Apoptosis 7 d/%” value in the assay on WM 266-4 [5] (CPP mimicking peptides) came out at 21%.

In the case of “RPKKRKVRRRVKRPMNAFMVWAQAARRKLADQY [SOX10-int1]”, the “Cell Count 7 d” value was found to be 28 in the assay on SK-MEL-28 [1] (CPP mimicking peptides), 25 in the assay on WM 266-4 [2] (CPP mimicking peptides) and 72 in the assay with B16. Moreover, the “WST-1 7 d” value in the assay with SK-MEL-28 [3] (CPP mimicking peptides) was 0.51; in the assay on WM 266-4 [4] (CPP mimicking peptides) it was 0.6. Also, the “Apoptosis 7 d/%” value in the assay with WM 266-4 [5] (CPP mimicking peptides) is listed as 31%.

As for “TTGGSSPQGLEAKRPKKRKVRRRFNINDRIKELGTLIPKSNDPDMRWN [MITF-int1M]”, the “Cell Count 7 d” value in the assay with SK-MEL-28 [1] (modified (inhibitor/MMP2, MMP9 site) peptides) is 42; in the assay on WM 266-4 [2] (modified peptides), 25. Further, the “WST-1 7 d” value was determined as 0.81 with SK-MEL-28 [3] (modified peptides) and 0.8 in the assay with WM 266-4 [4] (modified peptides). For the same sequence, in the assay on WM 266-4 [5] (modified peptides), the “Apoptosis 7 d/%” value came out at 21%.
